Measured values as given in PubChem BioAssay (NCI).
“And” between values parts separate entries of the source, which are not always exact repeats. Identical values can stand only once.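 The compound was tested at five concentrations on cells cultured in 96-well plates, with a 48-hour exposure period. GI50 is the concentration that inhibits growth by half. The concentration for full growth arrest is given as TGI.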

What was measured:
Assay in all cases: NCI anticancer screen, dose series, 48 h
[1] = system: NCI-H23 lung
[2] = system: DU-145 prostate
[3] = system: HCT-15 colon
[4] = system: UACC-62 melanoma
[5] = system: OVCAR-4 ovarian
[6] = system: CAKI-1 renal
[7] = system: RXF 393 renal
[8] = system: HT29 colon
[9] = system: TK-10 renal
[10] = system: SF-268 CNS

NC(C/[N+]([O-])=N/O)C(=O)O (stereo not given)
GI50 [1]: 3.85 µM and 12.6 µM and 1.61 µM
TGI [1]: > 100 µM and 154 µM
GI50 [2]: 173 µM
TGI [2]: > 500 µM
GI50 [3]: 3650 nM and 6690 nM and 1800 nM
TGI [3]: > 100 µM and 329 µM
GI50 [4]: 6.05 µM and 7.49 µM and 3.12 µM
TGI [4]: > 100 µM and 81.9 µM
GI50 [5]: 23.6 µM and > 100 µM and 21.2 µM
TGI [5]: > 449 µM
GI50 [6]: 16.6 µM and 32.2 µM and 4.52 µM
TGI [6]: > 100 µM and 102 µM
GI50 [7]: 93200 nM and > 100000 nM and 29000 nM
TGI [7]: > 100 µM and 381 µM
TGI [8]: > 395 µM
GI50 [9]: > 66.2 µM and > 100 µM and 30.9 µM
TGI [9]: > 459 µM
GI50 [10]: 6.55 µM and 2.88 µM and 5.56 µM
TGI [10]: > 482 µM

COc1cc(-c2nn(-c3ccc(NC(=O)Nc4ccc(Cl)c(Cl)c4)cc3)cc2-c2ccncc2)ccc1Cl
GI50 [1]: 3.26 µM
TGI [1]: 32.3 µM
GI50 [2]: 4.33 µM
TGI [2]: 69.7 µM
GI50 [3]: 2880 nM
TGI [3]: 14.1 µM
GI50 [4]: 3.35 µM
TGI [4]: 13.3 µM
GI50 [5]: 4.41 µM
TGI [5]: > 100 µM
GI50 [6]: 2.59 µM
TGI [6]: 7.68 µM
GI50 [7]: 2160 nM
TGI [7]: 7.49 µM
GI50 [8]: 3520 nM
TGI [8]: 17.1 µM
GI50 [9]: 6.5 µM
TGI [9]: > 100 µM
GI50 [10]: 4.57 µM
TGI [10]: > 100 µM

CCNC(C)(C)C(SS)c1ccc(Br)cc1 (stereo not given)
TGI [1]: > 100 µM
TGI [2]: > 100 µM
TGI [3]: > 100 µM
TGI [4]: > 100 µM
TGI [5]: > 100 µM
TGI [6]: > 100 µM
TGI [7]: > 100 µM
TGI [8]: 69.3 µM
TGI [9]: > 100 µM
TGI [10]: > 100 µM

N#CC(C#N)=Cc1c(-c2ccccc2)[nH]c2ccccc12
GI50 [1]: 4.65 µM
TGI [1]: > 66.3 µM
GI50 [2]: 3.2 µM
TGI [2]: 17.9 µM
GI50 [3]: 906 nM
TGI [3]: > 47.3 µM
GI50 [4]: 2.24 µM
TGI [4]: > 46.5 µM
GI50 [5]: 5.22 µM
TGI [5]: > 100 µM
GI50 [6]: 5.66 µM
TGI [6]: 48.7 µM
GI50 [7]: 3330 nM
TGI [7]: > 33.3 µM
GI50 [8]: 526 nM
TGI [8]: > 53.9 µM
GI50 [9]: 5.23 µM
TGI [9]: > 75.1 µM
GI50 [10]: 8.81 µM
TGI [10]: > 46.2 µM

COc1cc2c(c(OC)c1OC)C(=O)CC(c1cccc(NC(=O)c3ccc(Br)cc3)c1)O2 (stereo not given)
GI50 [1]: 2.87 µM
TGI [1]: > 100 µM
GI50 [2]: 2.85 µM
TGI [2]: > 100 µM
GI50 [3]: 2310 nM
TGI [3]: > 100 µM
GI50 [4]: 1.57 µM
TGI [4]: 4.09 µM
GI50 [5]: 1.6 µM
TGI [5]: > 100 µM
GI50 [6]: 2.25 µM
TGI [6]: > 100 µM
GI50 [7]: 4070 nM
TGI [7]: > 100 µM
GI50 [8]: 2770 nM
TGI [8]: > 100 µM
GI50 [9]: 4.44 µM
TGI [9]: > 100 µM
GI50 [10]: 2.57 µM
TGI [10]: > 100 µM

CN(Cc1cnc(N)nc1N)c1ccc(C(=O)O)cc1
GI50 [1]: > 100 µM
TGI [1]: > 100 µM
GI50 [2]: > 100 µM
TGI [2]: > 100 µM
GI50 [3]: > 100000 nM
TGI [3]: > 100 µM
GI50 [4]: > 100 µM
TGI [4]: > 100 µM
GI50 [5]: > 100 µM
TGI [5]: > 100 µM
GI50 [6]: > 100 µM
TGI [6]: > 100 µM
GI50 [7]: > 100000 nM
TGI [7]: > 100 µM
GI50 [8]: > 100000 nM
TGI [8]: > 100 µM
GI50 [9]: > 100 µM
TGI [9]: > 100 µM
GI50 [10]: > 100 µM
TGI [10]: > 100 µM

CC[C@@]1(OC(=O)CN)C(=O)OCc2c1cc1n(c2=O)Cc2cc3cc4c(cc3nc2-1)OCO4
GI50 [1]: < 0.01 µM
TGI [1]: < 0.0128 µM
GI50 [2]: < 0.01 µM
TGI [2]: < 0.012 µM
GI50 [3]: 29.1 nM
TGI [3]: > 100 µM
GI50 [4]: < 0.01 µM
TGI [4]: 0.105 µM
GI50 [5]: 0.0988 µM
TGI [5]: 0.826 µM
GI50 [6]: < 0.01 µM
GI50 [7]: < 10 nM
TGI [7]: 0.192 µM
GI50 [8]: < 10 nM
GI50 [9]: 0.108 µM
TGI [9]: 9.21 µM
GI50 [10]: < 0.01 µM

Cc1cc(N2CCN(C)CC2)nc(NCc2cc(Nc3ccnc4cc(Cl)ccc34)ccc2F)n1
GI50 [1]: 3.46 µM
TGI [1]: > 100 µM
GI50 [2]: 2.52 µM
TGI [2]: > 100 µM
GI50 [3]: 2210 nM
TGI [3]: 8.36 µM
GI50 [5]: 1.42 µM
TGI [5]: 6.13 µM
GI50 [6]: 2.68 µM
TGI [6]: 8.61 µM
GI50 [7]: 1630 nM
TGI [7]: 3.82 µM
GI50 [8]: 1240 nM
TGI [8]: 3.38 µM
GI50 [9]: 2.25 µM
TGI [9]: 5.82 µM
GI50 [10]: 1.99 µM
TGI [10]: 7.76 µM

Cc1csc(/C=N/NC(=O)c2nnn(-c3ccnc4c(C(F)(F)F)cccc34)c2C)c1
GI50 [1]: 48.1 µM
TGI [1]: > 100 µM
GI50 [2]: > 100 µM
TGI [2]: > 100 µM
GI50 [3]: 36900 nM
TGI [3]: > 100 µM
GI50 [4]: 74.7 µM
TGI [4]: > 100 µM
GI50 [5]: 5.2 µM
TGI [5]: 37.4 µM
GI50 [6]: 64.6 µM
TGI [6]: > 100 µM
GI50 [7]: 1410 nM
TGI [7]: 62.7 µM
GI50 [8]: 10100 nM
TGI [8]: 82.5 µM
GI50 [9]: 41.8 µM
TGI [9]: > 100 µM
GI50 [10]: > 100 µM
TGI [10]: > 100 µM

COc1cc2ccccc2c2cc([N+](=O)[O-])oc12
TGI [1]: 4.18 µM
TGI [2]: 7.49 µM
TGI [3]: 23.7 µM
TGI [4]: 2.36 µM
TGI [5]: > 44 µM
TGI [6]: > 100 µM
TGI [7]: 0.844 µM
TGI [8]: 21.9 µM
TGI [9]: 5.44 µM
TGI [10]: > 27.1 µM

COc1ccc(C(C#N)NC23CC4CC(CC(C4)C2)C3)cc1OC (stereo not given)
TGI [1]: > 100 µM
TGI [2]: > 100 µM
TGI [3]: > 100 µM
TGI [4]: > 100 µM
TGI [5]: > 100 µM
TGI [6]: > 100 µM
TGI [7]: > 100 µM
TGI [8]: > 100 µM
TGI [9]: > 100 µM
TGI [10]: > 100 µM

COc1ccc(-c2nn(-c3ccc(NC(=O)c4ccc(Cl)c(C(F)(F)F)c4)cc3)cc2-c2ccncc2)cc1Cl
GI50 [1]: 2.15 µM
TGI [1]: > 100 µM
GI50 [2]: 4.6 µM
TGI [2]: > 100 µM
GI50 [4]: 1.07 µM
TGI [4]: 5.02 µM
GI50 [5]: 2.48 µM
TGI [5]: > 100 µM
GI50 [6]: 0.335 µM
TGI [6]: 2.08 µM
GI50 [7]: 168 nM
TGI [7]: 0.489 µM
GI50 [8]: 337 nM
TGI [8]: 1.96 µM
GI50 [9]: 1.71 µM
TGI [9]: > 32.8 µM
GI50 [10]: 0.896 µM
TGI [10]: > 100 µM

COc1ccc2c(c1)[C@]1(C[C@H]1c1ccc3c(/C=C/c4ccc(CN5C[C@@H](C)O[C@@H](C)C5)cc4)n[nH]c3c1)C(=O)N2
GI50 [1]: 2.87 µM
TGI [1]: 31.8 µM
GI50 [2]: 4.91 µM
TGI [2]: 45.6 µM
GI50 [3]: 3340 nM
TGI [3]: > 100 µM
GI50 [4]: 9.79 µM
TGI [4]: 39.6 µM
GI50 [5]: 2.65 µM
TGI [5]: > 100 µM
GI50 [7]: 1850 nM
TGI [7]: 4.4 µM
GI50 [8]: 2830 nM
TGI [8]: 11.6 µM
GI50 [9]: 11.8 µM
TGI [9]: > 61.3 µM
GI50 [10]: 4.63 µM
TGI [10]: > 90.6 µM
